Numbers after ± are expanded uncertainties.
Experiment: xn = mol fraction of the nth substance listed
Conditions: 100 kPa, Liquid; for viscosity: Capillary tube (Ostwald / Ubbelohde) method

For CCCCCCCCO [octan-1-ol] + CCO, the viscosity (283.15 K, x2 = 0) was 13.49 ± 0.28 mPa·s, the viscosity (283.15 K, x2 = 0.1001) was 11.57 ± 0.24 mPa·s and the viscosity (283.15 K, x2 = 0.2001) was 9.981 ± 0.2 mPa·s. The viscosity (283.15 K, x2 = 0.3003) was 8.404 ± 0.17 mPa·s, the viscosity (283.15 K, x2 = 0.3999) was 6.907 ± 0.14 mPa·s and the viscosity (283.15 K, x2 = 0.5004) was 5.63 ± 0.12 mPa·s. The viscosity (283.15 K, x2 = 0.6006) was 4.488 ± 0.093 mPa·s, the viscosity (283.15 K, x2 = 0.7) was 3.543 ± 0.073 mPa·s and the viscosity (283.15 K, x2 = 0.7999) was 2.714 ± 0.056 mPa·s. It also gave a viscosity (283.15 K, x2 = 0.8998) of 2.003 ± 0.042 mPa·s, a mass density (283.15 K, x2 = 0) of 832.1 ± 1.2 kg/m3 and a mass density (283.15 K, x2 = 0.1001) of 831.8 ± 1.2 kg/m3. The mass density (283.15 K, x2 = 0.2001) was 829.4 ± 1.2 kg/m3, the mass density (283.15 K, x2 = 0.3003) was 827.3 ± 1.2 kg/m3 and the mass density (283.15 K, x2 = 0.3999) was 825.4 ± 1.2 kg/m3. For the same molecule, the mass density (283.15 K, x2 = 0.5004) was 822.6 ± 1.2 kg/m3, the mass density (283.15 K, x2 = 0.6006) was 820.1 ± 1.2 kg/m3 and the mass density (283.15 K, x2 = 0.7) was 816.8 ± 1.2 kg/m3. It also gave a mass density (283.15 K, x2 = 0.7999) of 811.7 ± 1.3 kg/m3, a mass density (283.15 K, x2 = 0.9001) of 805 ± 1.3 kg/m3 and a viscosity (293.15 K, x2 = 0) of 9.016 ± 0.19 mPa·s. For the same molecule, the viscosity (293.15 K, x2 = 0.1001) was 7.998 ± 0.17 mPa·s, the viscosity (293.15 K, x2 = 0.2001) was 6.997 ± 0.14 mPa·s and the viscosity (293.15 K, x2 = 0.3003) was 6.004 ± 0.12 mPa·s. For the same molecule, the viscosity (293.15 K, x2 = 0.3999) was 5.04 ± 0.1 mPa·s, the viscosity (293.15 K, x2 = 0.5004) was 4.177 ± 0.086 mPa·s and the viscosity (293.15 K, x2 = 0.6006) was 3.427 ± 0.071 mPa·s. The viscosity (293.15 K, x2 = 0.7) was 2.711 ± 0.056 mPa·s, the viscosity (293.15 K, x2 = 0.7999) was 2.146 ± 0.044 mPa·s and the viscosity (293.15 K, x2 = 0.8998) was 1.593 ± 0.033 mPa·s. The mass density (293.15 K, x2 = 0) was 825.2 ± 1.2 kg/m3, the mass density (293.15 K, x2 = 0.1001) was 824.1 ± 1.2 kg/m3 and the mass density (293.15 K, x2 = 0.2001) was 822.4 ± 1.2 kg/m3. The mass density (293.15 K, x2 = 0.3003) was 820.6 ± 1.2 kg/m3, the mass density (293.15 K, x2 = 0.3999) was 818.2 ± 1.2 kg/m3 and the mass density (293.15 K, x2 = 0.5004) was 815.3 ± 1.3 kg/m3. It also gave a mass density (293.15 K, x2 = 0.6006) of 812.7 ± 1.3 kg/m3, a mass density (293.15 K, x2 = 0.7) of 809.3 ± 1.3 kg/m3 and a mass density (293.15 K, x2 = 0.7999) of 803.9 ± 1.3 kg/m3. The mass density (293.15 K, x2 = 0.9001) was 796.8 ± 1.3 kg/m3, the viscosity (298.15 K, x2 = 0) was 7.39 ± 0.15 mPa·s and the viscosity (298.15 K, x2 = 0.1001) was 6.619 ± 0.14 mPa·s. The viscosity (298.15 K, x2 = 0.2001) was 5.812 ± 0.12 mPa·s, the viscosity (298.15 K, x2 = 0.3003) was 5.076 ± 0.11 mPa·s and the viscosity (298.15 K, x2 = 0.3999) was 4.357 ± 0.09 mPa·s. It also gave a viscosity (298.15 K, x2 = 0.5004) of 3.665 ± 0.076 mPa·s, a viscosity (298.15 K, x2 = 0.6006) of 3.047 ± 0.063 mPa·s and a viscosity (298.15 K, x2 = 0.7) of 2.445 ± 0.051 mPa·s. It also gave a viscosity (298.15 K, x2 = 0.7999) of 1.958 ± 0.041 mPa·s, a viscosity (298.15 K, x2 = 0.8998) of 1.474 ± 0.031 mPa·s and a mass density (298.15 K, x2 = 0) of 821.9 ± 1.2 kg/m3. For the same molecule, the mass density (298.15 K, x2 = 0.1001) was 821.3 ± 1.2 kg/m3, the mass density (298.15 K, x2 = 0.2001) was 818.9 ± 1.2 kg/m3 and the mass density (298.15 K, x2 = 0.3003) was 817 ± 1.3 kg/m3. The mass density (298.15 K, x2 = 0.3999) was 814.7 ± 1.3 kg/m3, the mass density (298.15 K, x2 = 0.5004) was 811.7 ± 1.3 kg/m3 and the mass density (298.15 K, x2 = 0.6006) was 809 ± 1.3 kg/m3. For the same molecule, the mass density (298.15 K, x2 = 0.7) was 805.4 ± 1.3 kg/m3, the mass density (298.15 K, x2 = 0.7999) was 800 ± 1.3 kg/m3 and the mass density (298.15 K, x2 = 0.9001) was 792.7 ± 1.4 kg/m3. For the same molecule, the viscosity (303.15 K, x2 = 0) was 6.306 ± 0.13 mPa·s, the viscosity (303.15 K, x2 = 0.1001) was 5.68 ± 0.12 mPa·s and the viscosity (303.15 K, x2 = 0.2001) was 5.045 ± 0.11 mPa·s. The viscosity (303.15 K, x2 = 0.3003) was 4.422 ± 0.092 mPa·s, the viscosity (303.15 K, x2 = 0.3999) was 3.732 ± 0.077 mPa·s and the viscosity (303.15 K, x2 = 0.5004) was 3.22 ± 0.067 mPa·s. It also gave a viscosity (303.15 K, x2 = 0.6006) of 2.677 ± 0.055 mPa·s, a viscosity (303.15 K, x2 = 0.7) of 2.178 ± 0.045 mPa·s and a viscosity (303.15 K, x2 = 0.7999) of 1.712 ± 0.036 mPa·s. It also gave a viscosity (303.15 K, x2 = 0.8998) of 1.328 ± 0.028 mPa·s, a mass density (303.15 K, x2 = 0) of 818.4 ± 1.3 kg/m3 and a mass density (303.15 K, x2 = 0.1001) of 817.8 ± 1.3 kg/m3. For the same molecule, the mass density (303.15 K, x2 = 0.2001) was 815.4 ± 1.3 kg/m3, the mass density (303.15 K, x2 = 0.3003) was 813.4 ± 1.3 kg/m3 and the mass density (303.15 K, x2 = 0.3999) was 811.5 ± 1.3 kg/m3. For the same molecule, the mass density (303.15 K, x2 = 0.5004) was 808.1 ± 1.3 kg/m3, the mass density (303.15 K, x2 = 0.6006) was 805.2 ± 1.3 kg/m3 and the mass density (303.15 K, x2 = 0.7) was 801.7 ± 1.3 kg/m3. It also gave a mass density (303.15 K, x2 = 0.7999) of 796.1 ± 1.3 kg/m3, a mass density (303.15 K, x2 = 0.9001) of 788.6 ± 1.4 kg/m3 and a viscosity (313.15 K, x2 = 0) of 4.587 ± 0.095 mPa·s. For the same molecule, the viscosity (313.15 K, x2 = 0.1001) was 4.167 ± 0.087 mPa·s, the viscosity (313.15 K, x2 = 0.2001) was 3.739 ± 0.078 mPa·s and the viscosity (313.15 K, x2 = 0.3003) was 3.316 ± 0.069 mPa·s. For the same molecule, the viscosity (313.15 K, x2 = 0.3999) was 2.903 ± 0.06 mPa·s, the viscosity (313.15 K, x2 = 0.5004) was 2.501 ± 0.052 mPa·s and the viscosity (313.15 K, x2 = 0.6006) was 2.117 ± 0.044 mPa·s. For the same molecule, the viscosity (313.15 K, x2 = 0.7) was 1.771 ± 0.037 mPa·s, the viscosity (313.15 K, x2 = 0.7999) was 1.4 ± 0.029 mPa·s and the viscosity (313.15 K, x2 = 0.8998) was 1.112 ± 0.023 mPa·s. For the same molecule, the mass density (313.15 K, x2 = 0) was 811.4 ± 1.3 kg/m3, the mass density (313.15 K, x2 = 0.1001) was 810.7 ± 1.3 kg/m3 and the mass density (313.15 K, x2 = 0.2001) was 808.3 ± 1.3 kg/m3. It also gave a mass density (313.15 K, x2 = 0.3003) of 806.2 ± 1.3 kg/m3, a mass density (313.15 K, x2 = 0.3999) of 803.7 ± 1.3 kg/m3 and a mass density (313.15 K, x2 = 0.5004) of 800.7 ± 1.3 kg/m3. The mass density (313.15 K, x2 = 0.6006) was 797.7 ± 1.3 kg/m3, the mass density (313.15 K, x2 = 0.7) was 793.9 ± 1.4 kg/m3 and the mass density (313.15 K, x2 = 0.7999) was 788.1 ± 1.4 kg/m3. It also gave a mass density (313.15 K, x2 = 0.9001) of 780.4 ± 1.4 kg/m3.
